According to patent US20130261114A1, “COMPOUNDS USEFUL AS INHIBITORS OF CHOLINE KINASE” (priority 2011, published 2013):
pIC50: −log10 of the molar value. Where “and” joins values, the source holds several entries; their conditions need not be identical. Equal values may be shown once.

Target: T1, Choline Kinase alpha enzyme (Homo sapiens, UniProt P35790)
T1 construct: hChoKα1 (M1-V457) (NP_001268); GST (N); made in house; host or cells: E. coli BL21(DE3)
Assay: Choline Kinase Alpha Inhibition Assay
Assay type: biochemical
Settings: 20 nM enzyme, 200 μM choline chloride, 400 μM ATP, 25° C., coupled NADH absorbance at 340 nm; read-out: IC50 values (inhibiting Choline Kinase Alpha)
Experimental: An assay buffer solution was prepared which consisted of 100 mM Tris-HCl (pH 7.5), 100 mM KCl, and 10 mM MgCl2. An enzyme buffer containing reagents to final assay concentrations of 290 μM NADH, 2.4 mM phosphoenolpyruvate, 60 μg/mL pyruvate kinase, 20 μg/mL lactate dehydrogenase, 200 μM choline chloride substrate and 20 nM Choline Kinase alpha enzyme was prepared in assay buffer. To 32 μL of this enzyme buffer, in a 96 well plate, was added 2 μL of VRT stock solution in DMSO. The mixture was allowed to equilibrate for 10 mins at 25° C. The enzyme reaction was initiated by the addition of 32 μL stock ATP solution prepared in assay buffer to a final assay concentration of 400 μM. Initial rate data was determined from the rate of change of absorbance at 340 nm (corresponding to stoichiometric consumption of NADH) using a Molecular Devices Spectramax plate reader (Sunnyvale, Calif.) over 15 mins at 25° C. For each IC50 determination, 12 data points covering the VRT concentration range of 0-100 μM were obtained in duplicate (DMSO stocks were prepared from an initial 10 mM VRT stock with subsequent 1:2.5 serial dilutions). IC50 values were calculated from initial rate data using the Prism software package (Prism 4.0a, Graphpad Software, San Diego, Calif.).
hChoKα1 (M1-V457) (NP_001268) was codon optimized for E. coli and cloned into a modified pGEX-2T vector. Recombinant GST-tagged ChoKα1 protein was produced in E. coli strain BL21(DE3). After growing cell cultures at 37° C. until the OD600=1, the cultures were induced with 1 mM IPTG for 16 h at 30° C. and the cells were harvested as a pellet (8500 rpm, 4° C., 20 min). The protein was purified using glutathione affinity purification followed by size exclusion via Superdex-200 26/60 (GE Healthcare). See Malito, Enrico et. al., “Journal of Molecular Biology”, Volume 364, Issue 2, pages 136-151 (November 2006).

T1 sequence (P35790 whole entry): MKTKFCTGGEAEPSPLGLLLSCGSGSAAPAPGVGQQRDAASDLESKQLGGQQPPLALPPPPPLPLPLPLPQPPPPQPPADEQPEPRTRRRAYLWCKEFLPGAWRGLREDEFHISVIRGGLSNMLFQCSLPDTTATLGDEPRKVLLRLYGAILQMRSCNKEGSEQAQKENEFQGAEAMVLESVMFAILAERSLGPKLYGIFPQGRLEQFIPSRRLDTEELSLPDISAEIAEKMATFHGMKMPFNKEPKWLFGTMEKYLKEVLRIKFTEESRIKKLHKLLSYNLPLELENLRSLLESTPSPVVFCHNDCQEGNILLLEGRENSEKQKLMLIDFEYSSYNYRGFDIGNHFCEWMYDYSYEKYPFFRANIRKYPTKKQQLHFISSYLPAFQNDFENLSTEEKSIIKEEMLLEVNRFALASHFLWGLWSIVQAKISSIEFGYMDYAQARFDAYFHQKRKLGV

Q: How did the pIC50 turn out when OC(c1ccccc1)(c1ccccc1Cl)C1C[N@]2CC[C@@H]1CC2 (some centres unmarked) [Compound I-85] was run?
A: 6.00 to 7.00

Q: With OC(Cc1ccccc1)(c1ccccc1)C1CN2CCC1CC2 (centres unmarked) [Compound I-80] as the compound, how does the pIC50 read?
A: 6.00 to 7.00

Q: How did the pIC50 turn out when CN(C)c1ccc(CCC(O)(c2ccc(N(C)C)cc2)C2CN3CCC2CC3)cc1 (centres unmarked) [Compound I-17] was run?
A: 4.12 to 6.00

Q: With OC(Cc1ccccc1)(Cc1ccccc1)C1CN2CCC1CC2 (centres unmarked) [Compound I-83] as the compound, how does the pIC50 read?
A: 4.12 to 6.00

Q: OC(c1ccccc1)(c1ccccc1)C1CN2CCC1CC2 (centres unmarked) [Compound I-87] was tested. Which pIC50 did it give?
A: 6.00 to 7.00

Q: With OC(c1cccc(Cl)c1)(c1cccc(Cl)c1)C1CN2CCC1CC2 (centres unmarked) [Compound I-82] as the compound, how does the pIC50 read?
A: 4.12 to 6.00

Q: With CN(C)c1ccc(C(O)(c2ccc(N(C)C)cc2)C2CN3CCC2CC3)cc1 (centres unmarked) [Compound I-79] as the compound, how does the pIC50 read?
A: 6.00 to 7.00 and 4.12 to 6.00

Q: With OC(c1ccc(Cl)s1)(c1ccc(Cl)s1)C1CN2CCC1CC2 (centres unmarked) [Compound I-81] as the compound, how does the pIC50 read?
A: 6.00 to 7.00

Q: How did the pIC50 turn out when OC(c1ccccc1)(c1ccc(Cl)cc1)C1C[N@]2CC[C@@H]1CC2 (some centres unmarked) [Compound I-86] was run?
A: 6.00 to 7.00

Q: How did the pIC50 turn out when Cc1ccccc1C(O)(Cc1ccccc1)C1CN2CCC1CC2 (single isomer, unassigned) [Compound I-84, 1-(o-tolyl)-2-phenyl-1-quinuclidin-3-yl-ethanol] was run?
A: 4.12 to 6.00

Q: With Cc1ccccc1C(O)(Cc1ccccc1)C1CN2CCC1CC2 (single isomer, unassigned) [Compound I-78, 1-(o-tolyl)-2-phenyl-1-quinuclidin-3-yl-ethanol] as the compound, how does the pIC50 read?
A: > 7.00
